We go through 13 compounds from patent publication US9884065B2, “Inhibiting activity of senescent cells using a glucocorticoid” (Buck Institute for Research on Aging, priority 2011, dated 2018).

Series [1] concerns IL-6. Description: Initial drug screen (Prestwick Chemical Library), IL-6 ELISA of medium. The following applies: 2.5 μM, 48 hours, HCA2 fibroblasts, 0.2% serum. It counts as cell-based, human. The procedure:
The initial drug screen was performed in a 96-well format using automated liquid handling with a Biomek FX (Beckman Coulter, CA). Senescent cells were plated 24 hours after X-irradiation at 7,500 cells per well in 96-well plates. Six days after plating the senescent cells, the pre-senescent cells were plated at 7,500 cells per well in 96-well plates. Twenty-four hours after pre-senescent plating, both pre-senescent and senescent cells were washed and incubated in low (0.2%) serum for 48 hours to arrest cell proliferation of the pre-senescent cells. […] Forty-eight hours after compound addition, the medium in each well was removed and frozen for assay by ELISA to quantitate the levels of IL-6. The cells, which remained in the wells after the medium was removed, were lysed and ATP levels were measured (ATPlite 1-step assay, Perkin Elmer, MA) to exclude compounds that lowered IL-6 through toxicity (cell death). Experimental wells in each plate were normalized to plate mean or same-plate DMSO controls for the ELISA and ATP assays, respectively.
To identify small molecules that may be potential SASP modulators, a screening strategy that entailed administering compounds to parallel 96-well plates containing human fibroblasts (strain HCA2) that were either quiescent or senescent was developed. […] After 48 hours, the medium from each well was removed, and the cells were lysed. […] Cell lysates were assayed for ATP as a surrogate for cell number.
In general terms: An ELISA detects its analyte on a solid surface through an enzyme-linked reagent.

Another series relates to HCA2 human fibroblasts. The following applies: 2.5 μM, 48 hours. The procedure: The initial drug screen was performed in a 96-well format using automated liquid handling with a Biomek FX (Beckman Coulter, CA). Senescent cells were plated 24 hours after X-irradiation at 7,500 cells per well in 96-well plates. Six days after plating the senescent cells, the pre-senescent cells were plated at 7,500 cells per well in 96-well plates. Twenty-four hours after pre-senescent plating, both pre-senescent and senescent cells were washed and incubated in low (0.2%) serum for 48 hours to arrest cell proliferation of the pre-senescent cells. Drugs from the Prestwick Chemical Library, which contains 1120 bio-available compounds in DMSO, were given to the cells at 2.5 μM in media containing 0.2% serum. Forty-eight hours after compound addition, the medium in each well was removed and frozen for assay by ELISA to quantitate the levels of IL-6. The cells, which remained in the wells after the medium was removed, were lysed and ATP levels were measured (ATPlite 1-step assay, Perkin Elmer, MA) to exclude compounds that lowered IL-6 through toxicity (cell death). Experimental wells in each plate were normalized to plate mean or same-plate DMSO controls for the ELISA and ATP assays, respectively.
To identify small molecules that may be potential SASP modulators, a screening strategy that entailed administering compounds to parallel 96-well plates containing human fibroblasts (strain HCA2) that were either quiescent or senescent was developed. The compounds tested comprised the Prestwick Chemical Library, a collection of approximately 1,120 Federal Drug Administration-approved drugs. The compounds were added to duplicate wells at a single concentration (2.5 μM). After 48 hours, the medium from each well was removed, and the cells were lysed. […] Cell lysates were assayed for ATP as a surrogate for cell number.

Series [2] deals with IL-6. Description: IL-6 ELISA of conditioned media from X-irradiated senescent HCA2 fibroblasts. It is filed as cell-based, human. The following applies: 50 nM corticosterone or 100 nM cortisol; rIL-1α given six days after irradiation, 24 hours. The procedure:
To validate glucocorticoids as SASP regulators, they were added within 15 min after irradiation (unless otherwise indicated). For cells induced to senesce by MKK6 or RAS overexpression, glucocorticoid treatment started 16 hours after infection. Glucocorticoids were re-added in fresh media every other day. Six days after irradiation or selection, cells were given serum-free DMEM with or without glucocorticoid for 24 hours; the conditioned media were collected and frozen for ELISAs.
Conditioned media were filtered and stored at −80° C. Cell numbers were determined in every experiment. ELISAs were performed using kits and procedures from PerkinElmer (IL-6 AL223F). Data were normalized and expressed as pg/ml/cell/24 h.
To confirm the ability of corticosterone to suppress senescence-associated IL-6 secretion, fresh HCA2 fibroblast cultures were prepared, and senescence was induced by X-irradiation (10 Gy). Under these conditions, cells undergo growth arrest within 24-48 hours, but require 4-5 days before SASP components are detected in the medium (Coppe et al., 2008, PLoS Biol. 6:2853-2868; Rodier et al., 2009, Nature Cell Biol. 11:973-979; Coppe et al., 2010, PLoS ONE 5:e9188; Freund et al., 2011, EMBO J. 30:1536-1548). Varying concentrations of corticosterone were added immediately after irradiation, and the cells were maintained in the drug for 6 days. On the 6th day, the cells were incubated in serum-free medium with or without corticosterone, the conditioned medium was collected 24 h later, and the medium was assayed for IL-6 by ELISA. […] The ability of corticosterone to suppress IL-6 secretion by senescent cells was not peculiar to HCA2 cells.

The next series concerns NF-κB. Description: NF-κB reporter-luciferase transactivation assay. It counts as cell-based, human. The following applies: 0.5 μM RU-486 or 2.5 ng mL^−1 IL-1α. The procedure:
Nuclear extracts were prepared using the nuclear extract kit (Active Motif), and NF-κB DNA binding was determined using the TransAM NF-κB p65 kit (Active Motif). For transactivation assays, cells infected with the NF-κB reporter-luciferase lentivirus were lysed in buffer (Promega), and luciferase activity was normalized to cell number, as described (Freund et al., 2011, EMBO J. 30:1536-1548).

Series [3] has as its system senescent cells. As to the kind of experiment: Detection and clearance of senescent cells in irradiated p16-3MR transgenic mice (rLUC bioluminescence, SASP biomarker RNA). It is filed as in vivo, mouse. The procedure:
Briefly, a group of p16-3MR transgenic mice were exposed to whole body ionizing radiation (7 Gy X-ray) and a control group of p16-3MR transgenic mice were mock-irradiated. After three months, the mice were treated with GCV (25 mg/kg) or vehicle only, and then at least two weeks later bioluminescence in tissues was examined after administering the rLUC substrate.

Series [4] relates to B16 mouse melanoma cells. Description: B16 melanoma tail-vein injection in irradiated p16-3MR mice (primary tumors and metastases, fLUC bioluminescence). It counts as in vivo. The procedure: Briefly, 10^6 B16 mouse melanoma cells, a highly aggressive cell line that is syngeneic with p16-3MR transgenic mice (C57B16 background), that express firefly luciferase (fLUC, to enable their detection by bioluminescence) were injected into the tail vein of the p16-3MR transgenic mice approximately three months after being either mock irradiated or irradiated, as described in Example 2. Irradiated mice were treated daily with GCV (25 mg/kg) or vehicle only for 7 days, and then 3 days following the last GCV dose, B16 mouse melanoma cells were injected into the mice. B16 mouse melanoma cells first colonize the lung, where they form primary tumors approximately two weeks after injection, and thereafter metastasize to distal tissues to form secondary tumors in, for example, the pancreas, liver and visceral fat. The bioluminescence markers, fLUC and rLUC are distinguishable because the enzymes use different substrates.

Series [5] concerns B16 mouse melanoma cells. As to the kind of experiment: Subcutaneous B16 melanoma in doxorubicin-treated p16-3MR mice. It is filed as in vivo. The following applies: for p16INK4a and mRFP expression in skin biopsies / tumor diameters: doxorubicin 10 mg/kg with or without GCV; for tumor diameters / growth/size of subcutaneous B16 melanoma tumors: 12 days after B16 injection; for growth/size of subcutaneous B16 melanoma tumors: doxorubicin 10 mg/kg, GCV 25 mg/kg daily for 7 days starting 7 days later. The procedure:
Briefly, p16-3MR transgenic mice were treated with vehicle (ctrl) or 10 mg/kg doxorubicin. Seven days after doxorubicin treatment, mice were treated daily with GCV (25 mg/kg) for 7 days or vehicle only. 3 days after the last GCV treatment, 4×10^5 B16 mouse melanoma cells were injected subcutaneously into the p16-3MR transgenic mice, and mice were sacrificed after 12 days for analysis.

The subject of series [6] is senescent cells. As to the kind of experiment: Doxorubicin-induced senescent cells in tissues of p16-3MR mice (mRFP and p16INK4a mRNA). Conditions: doxorubicin 10 mg/kg vs untreated control mice. It is filed as in vivo, mouse. From the text: Similar results were observed when the senescent cell accumulation was induced with the chemotherapeutic agent, doxorubicin. […] Various tissues were isolated (liver, heart, lung, kidney, and spleen) and measured for abundance of mRNAs encoding mRFP and p16INK4a as markers for senescent cells (see FIGS. 5A and 5B, respectively).

The mark [7] stands for this setting: irradiated + GCV, eighteen days after injection.

Entries after “also recorded” stand apart in the source; their conditions may differ.

With `Cc1ccc(S(=O)(=O)NC(=O)NN2CC3CCCC3C2)cc1` (stereo not drawn) [gliclazide], the “IL-6 secretion (ELISA)” value in the series on IL-6 [1] is recorded as “suppressed IL-6 secretion”. In the series with HCA2 human fibroblasts, the ATP levels entry was “without altering ATP levels”.
Consider “Recombinant IL-1α: recombinant IL-1α protein added to glucocorticoid-treated senescent cells”, for which the “IL-6 secretion suppressed by corticosterone and cortisol, added recombinant IL-1α” value in the series on IL-6 [2] is listed as “rescued the suppression of IL-6 secretion”. Besides, in the series on NF-κB, the “NF-κB transactivation activity, co-treatment with either glucocorticoid” value was “rescued NF-κB transactivation activity”.
As to `C/C(=C(\CCOP(=O)(O)O)SC(=O)c1ccccc1)N(C=O)Cc1cnc(C)nc1N` [benfotiamine], the “IL-6 secretion (ELISA)” value in the series on IL-6 [1] is given as “suppressed IL-6 secretion”. In addition, the ATP levels entry in the series with HCA2 human fibroblasts is reported as “without altering ATP levels”.
For `Cc1ccc(S(=O)(=O)NC(=O)NN2CCCCCC2)cc1` [tolazamide] the same measures were “suppressed IL-6 secretion” and “without altering ATP levels”.
Turning to `C[C@]12CC[C@@H](O)C[C@@H]1CC[C@@H]1[C@@H]2CC[C@]2(C)C(=O)CC[C@@H]12` [androsterone], the “IL-6 secretion (ELISA)” value in the series with IL-6 [1] is given as “suppressed IL-6 secretion”. Also, the ATP levels entry with HCA2 human fibroblasts is “without altering ATP levels”.
With `Nc1nc(O)c2ncn(COC(CO)CO)c2n1` [GCV, ganciclovir], in the series on senescent cells [3] (irradiated (7 Gy) p16-3MR mice, GCV 25 mg/kg three months after irradiation, lung tissue shown), the “rLUC expression levels (bioluminescence in tissues)” value was “comparable to unirradiated mice”. The “p16INK4a (p16), IL-6, MMP-3 and mRFP RNA expression levels” value in the series on senescent cells [3] (irradiated p16-3MR mice treated with GCV) was “returned p16INK4a (p16), IL-6, MMP-3 and mRFP expression levels to those found in the unirradiated control mice”. Moreover, in the series with B16 mouse melanoma cells [4] (18 days after injection), the “metastatic B16 melanoma cells, Fat (estimated % of total area of fat)” value is reported as 25% and the “metastatic B16 melanoma cells, Liver” value is reported as 7 ± 3.6 nodules. Also, in the series with B16 mouse melanoma cells [4] (18 days after injection, TNTC = too numerous to count), the “metastatic B16 melanoma cells, Lung (luminescent nodules)” value is “TNTC”. In addition, the “B16 cells as detected by luminescence” value with B16 mouse melanoma cells [4] (irradiated + GCV, day 18) was “still showed relatively low levels of B16 cells”. In addition, in the series with B16 mouse melanoma cells [4] (setting [7]), the “metastases in distal organs (liver, fat)” value was “almost devoid of metastases” and the primary lung tumors entry is given as “large primary lung tumors were evident”. For the same compound, in the series with B16 mouse melanoma cells [4] (irradiated + GCV, fifteen days after injection), the “B16 cells as detected by luminescence” value is “relatively low levels of B16 cells”. Moreover, in the series with B16 mouse melanoma cells [4] (irradiated mice, GCV 25 mg/kg daily for 7 days, 15 days after B16 injection), the “primary tumors and metastases” value was “much smaller primary tumors and many fewer metastases”. In the series on B16 mouse melanoma cells [5], the “p16INK4a and mRFP expression in skin biopsies” value was “low levels of p16INK4a and mRFP expression”; the tumor diameters result was “smaller tumor sizes”; the “growth/size of subcutaneous B16 melanoma tumors” value is “substantially reduced the size of B16 melanoma tumors; also recorded: much smaller primary tumors”.
Regarding `COc1cccc2c1C(=O)c1c(O)c3c(c(O)c1C2=O)C[C@@](O)(C(=O)CO)C[C@@H]3O[C@H]1C[C@H](N)[C@H](O)[C@H](C)O1` [doxorubicin], the “mRFP and p16INK4a mRNA in liver, heart, lung, kidney, spleen” value in the series on senescent cells [6] was “higher levels of mRFP and p16INK4a in all tissues”. In addition, in the series on B16 mouse melanoma cells [5], the “p16INK4a and mRFP expression in skin biopsies” value is listed as “increased senescence”; the tumor diameters entry is “increased tumor sizes”; the “growth/size of subcutaneous B16 melanoma tumors” value is reported as “stimulated the growth of B16 melanoma cells; also recorded: Tumor growth was increased”.
As for `C[C@]12C=CC(=O)C=C1CC[C@@H]1[C@@H]2C(=O)C[C@@]2(C)[C@H]1CC[C@]2(O)C(=O)CO` [prednisone], the “IL-6 secretion (ELISA)” value in the series on IL-6 [1] is “suppressed IL-6 secretion”. Further, in the series on HCA2 human fibroblasts, the ATP levels result was “without altering ATP levels”.
In the case of `Nc1cc(N2CCCCC2)nc(N)[n+]1[O-]` [minoxidil], the ATP levels entry with HCA2 human fibroblasts is reported as “without altering ATP levels”.
In the case of `CCCNC(=O)NS(=O)(=O)c1ccc(Cl)cc1` [chlorpropamide], in the series with IL-6 [1], the “IL-6 secretion (ELISA)” value is listed as “suppressed IL-6 secretion”. The ATP levels result in the series with HCA2 human fibroblasts is “without altering ATP levels”.
Turning to `C#C[C@]1(O)CC[C@H]2[C@@H]3CCC4=CC(=O)CC[C@@H]4[C@H]3CC[C@@]21CC` [norgestrel-(−)-D], the “IL-6 secretion (ELISA)” value in the series with IL-6 [1] was “suppressed IL-6 secretion”.
Take `CC(C)(C)NC(=O)[C@H]1CC[C@H]2[C@@H]3CC[C@H]4NC(=O)C=C[C@]4(C)[C@H]3CC[C@]12C` [finasteride]: the “IL-6 secretion (ELISA)” value with IL-6 [1] is “suppressed IL-6 secretion”. Further, the ATP levels entry in the series with HCA2 human fibroblasts is on record as “without altering ATP levels”.
In the case of `C[C@]12CC[C@@H]3c4ccc(O)cc4CC[C@H]3[C@@H]1CC[C@@H]2O` [estradiol-17-beta], the “IL-6 secretion (ELISA)” value in the series on IL-6 [1] is listed as “suppressed IL-6 secretion”.
